For assay [1] the following is noted: porcine model of IL-1 beta-induced coronary stenosis; cited from earlier work.
For assay [2] the following is noted: rat stroke model; cited from earlier work.
Assay [3] deals with T1, GST-tagged human ROCK1 catalytic domain 1-477 (Homo sapiens, UniProt Q13464).
T1 construct: human ROCK1 catalytic domain 1-477 from Carna Biosciences (cat #01-109); purchased Carna Biosciences 01-109; host or cells: baculovirus expression system
The experiment in a line: Isolated Enzyme Assay, ROCK1 (LANCE Ultra ULight-CREBtide FRET). It counts as biochemical. Particulars: 30 μM highest concentration tested, read-out: Results from Isolated Enzyme Assay IC50 (μM) ROCK1. The essentials:
(§1)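 Baculovirus-expressed constitutively active ROCK1 or ROCK2 (2 nM) incubated 90 min at room temperature with 50 nM ULight-CREBtide and compound (0.5% DMSO) in Tris pH 7.5, MgCl2, EGTA, Tween-20, DTT. EDTA-stopped; phospho-substrate detected by Eu-anti-phospho-CREB TR-FRET after 60 min; IC50 by non-linear regression.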
A general note: TR-FRET usually uses a lanthanide donor and a delayed reading to cut background.

For assay [4], the target named is T2, GST-tagged human ROCK2 catalytic domain 1-553 (Homo sapiens, UniProt O75116).
T2 construct: GST-tagged human ROCK2 catalytic domain 1-553 from Carna Biosciences (Cat #01-110); purchased Carna Biosciences 01-110; host or cells: baculovirus expression system
The experiment in a line: Isolated Enzyme Assay, ROCK2 (LANCE Ultra ULight-CREBtide FRET). The format is biochemical. To be noted: 30 μM highest concentration tested, read-out: Results from Isolated Enzyme Assay IC50 (μM) ROCK2. A digest of the protocol: as §1

In assay [5] the target is T3, ROCK1 (Homo sapiens, UniProt Q13464).
T3 construct: endogenous in cells; host or cells: HAP1 knockout cells
The assay is described as follows: Cell-Based Assay, ROCK1 (HAP1 knockout cells, phospho-MYPT1 Thr853 ELISA). Particulars: read-out: Results from Cell-Based Assay IC50 (μM) ROCK1. The procedure: Part II—Procedure for Determining ROCK Inhibition Ability of Test Compounds Using a Cell-Base Assay
The Cell-Based Assay for determining ROCK inhibition ability of test compounds utilized a genetically modified HAP1 cell line engineered to eliminate expression of either ROCK1 or ROCK2. In the procedure, HAP1 knockout cells are grown in Iscove's Modified Dulbecco's Medium that is additionally supplemented with 10% fetal bovine and 1x antibiotic-antimycotic mixture. Cells are plated in 96 well tissue culture plates at 1×10^5 cells/well (100 μL, of cells at 1×10^6/mL). Test compounds are solubilized in DMSO and diluted into the same media used to grow the cells. A 100 μL, aliquot of each compound dilution in media is added to each well containing the HAP1 cells and incubated at 37° C. for 30 minutes. Following compound incubation, the cells are pelleted by centrifugation at 1800 rpm for 5 minutes at 4° C. Media is removed from the cell pellet and the cells lysed and de-salted. An 80 μL, aliquot of each cell lysate is added to a single well of a 96-well high binding ELISA plate which has been pre-coated with a MYPT1 capture antibody and incubated at 4° C. overnight. The following day the ELISA plate is washed 4× with 0.05% Tween-20 in PBS. After washing, an anti-phospho-MYPT1 (Thr853) antibody is added and allowed to bind for 1 hour at room temperature. The wash step is repeated, and then an anti-rabbit HRP detection antibody is added and allowed to incubate at room temperature for 1 hour. The wash step is then repeated and 100 μL/well 1-Step™ Ultra TMB substrate is added to the ELISA plate and allowed to develop for approximately 5 minutes. The reaction is stopped by addition of H2SO4. Absorbance is read at 450 OD. Data is analyzed using GraphPad Prism software to calculate the 50% inhibitory concentration of test compound (IC50).
For orientation: An ELISA detects its analyte on a solid surface through an enzyme-linked reagent.

Assay [6] deals with T4, ROCK2 (Homo sapiens, UniProt O75116).
T4 construct: endogenous in cells; host or cells: HAP1 knockout cells
The experiment in a line: Cell-Based Assay, ROCK2 (HAP1 knockout cells, phospho-MYPT1 Thr853 ELISA). To be noted: read-out: Results from Cell-Based Assay IC50 (μM) ROCK2.

[7] abbreviates: phospho-MYPT1, 30 μM highest concentration tested.

One may read the IC50 as the point on the concentration scale where inhibition reaches its midpoint.

Read-outs that look alike come from different tables or passages of the source.

T3 sequence (Q13464 whole entry): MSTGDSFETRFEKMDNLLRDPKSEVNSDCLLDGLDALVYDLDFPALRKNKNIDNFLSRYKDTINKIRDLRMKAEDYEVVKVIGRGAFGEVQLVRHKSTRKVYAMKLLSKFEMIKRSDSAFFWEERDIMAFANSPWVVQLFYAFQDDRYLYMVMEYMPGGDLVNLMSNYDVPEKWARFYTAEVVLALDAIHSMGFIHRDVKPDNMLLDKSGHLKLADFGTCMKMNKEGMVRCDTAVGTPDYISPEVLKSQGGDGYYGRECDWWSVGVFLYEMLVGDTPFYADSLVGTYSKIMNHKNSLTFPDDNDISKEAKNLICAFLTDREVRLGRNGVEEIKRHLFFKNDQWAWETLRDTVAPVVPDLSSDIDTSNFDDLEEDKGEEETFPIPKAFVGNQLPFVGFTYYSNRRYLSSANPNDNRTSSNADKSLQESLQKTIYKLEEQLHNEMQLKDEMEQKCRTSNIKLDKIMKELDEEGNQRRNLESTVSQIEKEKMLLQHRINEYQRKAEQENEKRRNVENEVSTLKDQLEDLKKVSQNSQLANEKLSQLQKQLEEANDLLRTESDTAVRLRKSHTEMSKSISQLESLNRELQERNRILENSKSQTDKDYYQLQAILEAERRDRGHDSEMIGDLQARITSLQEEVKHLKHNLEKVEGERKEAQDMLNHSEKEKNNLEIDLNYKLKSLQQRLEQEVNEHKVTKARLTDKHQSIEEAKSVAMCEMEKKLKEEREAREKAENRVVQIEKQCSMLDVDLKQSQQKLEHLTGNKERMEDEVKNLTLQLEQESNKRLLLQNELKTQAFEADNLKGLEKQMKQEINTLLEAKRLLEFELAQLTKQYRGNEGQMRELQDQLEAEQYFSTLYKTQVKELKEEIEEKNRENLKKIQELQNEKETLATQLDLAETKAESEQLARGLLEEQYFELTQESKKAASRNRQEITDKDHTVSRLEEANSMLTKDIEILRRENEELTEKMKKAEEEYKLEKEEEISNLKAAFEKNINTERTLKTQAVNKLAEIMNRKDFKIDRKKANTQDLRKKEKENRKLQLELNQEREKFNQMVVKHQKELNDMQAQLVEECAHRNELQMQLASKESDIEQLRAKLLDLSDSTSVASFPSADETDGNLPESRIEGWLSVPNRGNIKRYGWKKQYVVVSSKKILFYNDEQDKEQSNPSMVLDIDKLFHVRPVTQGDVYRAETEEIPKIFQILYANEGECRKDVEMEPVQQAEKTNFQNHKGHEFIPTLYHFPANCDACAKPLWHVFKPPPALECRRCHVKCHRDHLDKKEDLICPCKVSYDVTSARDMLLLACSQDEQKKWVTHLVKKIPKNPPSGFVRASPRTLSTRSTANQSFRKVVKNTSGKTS
T1 sequence (Q13464 1-477): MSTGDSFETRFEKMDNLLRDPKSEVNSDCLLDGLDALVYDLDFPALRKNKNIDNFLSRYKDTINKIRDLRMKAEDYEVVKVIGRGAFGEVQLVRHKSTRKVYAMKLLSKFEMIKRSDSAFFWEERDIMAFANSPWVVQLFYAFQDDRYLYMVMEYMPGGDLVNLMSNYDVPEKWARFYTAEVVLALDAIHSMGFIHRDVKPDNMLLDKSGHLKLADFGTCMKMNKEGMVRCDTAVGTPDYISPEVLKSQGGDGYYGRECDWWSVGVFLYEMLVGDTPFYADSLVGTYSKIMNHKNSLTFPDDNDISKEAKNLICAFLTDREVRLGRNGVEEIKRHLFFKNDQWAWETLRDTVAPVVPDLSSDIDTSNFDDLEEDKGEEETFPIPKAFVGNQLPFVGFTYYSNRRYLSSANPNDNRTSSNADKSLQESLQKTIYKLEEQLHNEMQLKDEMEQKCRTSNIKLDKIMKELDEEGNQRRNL
T4 sequence (O75116 whole entry): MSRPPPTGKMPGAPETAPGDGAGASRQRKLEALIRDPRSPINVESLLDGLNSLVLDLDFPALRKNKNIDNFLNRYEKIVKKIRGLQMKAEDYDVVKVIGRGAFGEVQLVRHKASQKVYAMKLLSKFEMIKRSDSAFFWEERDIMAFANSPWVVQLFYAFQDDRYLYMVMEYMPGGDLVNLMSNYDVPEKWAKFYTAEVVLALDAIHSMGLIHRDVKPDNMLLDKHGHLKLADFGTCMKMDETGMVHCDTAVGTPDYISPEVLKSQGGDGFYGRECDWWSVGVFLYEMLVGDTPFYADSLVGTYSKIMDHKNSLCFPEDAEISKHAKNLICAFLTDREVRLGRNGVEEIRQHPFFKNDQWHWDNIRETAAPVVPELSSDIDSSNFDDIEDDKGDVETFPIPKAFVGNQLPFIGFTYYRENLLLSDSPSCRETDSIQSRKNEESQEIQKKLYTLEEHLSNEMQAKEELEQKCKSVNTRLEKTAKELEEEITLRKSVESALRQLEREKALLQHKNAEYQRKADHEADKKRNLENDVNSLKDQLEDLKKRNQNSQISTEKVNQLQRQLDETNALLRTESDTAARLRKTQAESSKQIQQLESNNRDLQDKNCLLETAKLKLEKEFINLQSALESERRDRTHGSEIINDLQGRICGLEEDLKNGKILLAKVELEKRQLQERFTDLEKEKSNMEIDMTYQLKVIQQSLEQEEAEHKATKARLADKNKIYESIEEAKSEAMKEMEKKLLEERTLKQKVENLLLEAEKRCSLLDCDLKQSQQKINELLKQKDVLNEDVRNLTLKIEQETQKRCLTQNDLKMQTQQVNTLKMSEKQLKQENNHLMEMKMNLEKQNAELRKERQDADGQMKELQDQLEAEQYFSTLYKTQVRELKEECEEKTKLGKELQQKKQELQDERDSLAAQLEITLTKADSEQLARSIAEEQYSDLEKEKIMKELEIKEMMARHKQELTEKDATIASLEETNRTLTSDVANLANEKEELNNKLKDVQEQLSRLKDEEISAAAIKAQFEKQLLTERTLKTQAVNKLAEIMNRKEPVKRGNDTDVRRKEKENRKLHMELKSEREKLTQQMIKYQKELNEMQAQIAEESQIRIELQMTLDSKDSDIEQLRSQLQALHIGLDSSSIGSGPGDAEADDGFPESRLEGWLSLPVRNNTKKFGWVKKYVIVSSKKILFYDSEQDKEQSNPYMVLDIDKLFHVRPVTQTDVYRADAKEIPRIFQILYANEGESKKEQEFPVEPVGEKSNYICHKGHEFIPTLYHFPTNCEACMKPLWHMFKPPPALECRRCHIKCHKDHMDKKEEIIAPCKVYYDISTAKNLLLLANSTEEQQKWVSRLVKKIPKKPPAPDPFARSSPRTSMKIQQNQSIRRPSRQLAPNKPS
T2 sequence (O75116 1-553): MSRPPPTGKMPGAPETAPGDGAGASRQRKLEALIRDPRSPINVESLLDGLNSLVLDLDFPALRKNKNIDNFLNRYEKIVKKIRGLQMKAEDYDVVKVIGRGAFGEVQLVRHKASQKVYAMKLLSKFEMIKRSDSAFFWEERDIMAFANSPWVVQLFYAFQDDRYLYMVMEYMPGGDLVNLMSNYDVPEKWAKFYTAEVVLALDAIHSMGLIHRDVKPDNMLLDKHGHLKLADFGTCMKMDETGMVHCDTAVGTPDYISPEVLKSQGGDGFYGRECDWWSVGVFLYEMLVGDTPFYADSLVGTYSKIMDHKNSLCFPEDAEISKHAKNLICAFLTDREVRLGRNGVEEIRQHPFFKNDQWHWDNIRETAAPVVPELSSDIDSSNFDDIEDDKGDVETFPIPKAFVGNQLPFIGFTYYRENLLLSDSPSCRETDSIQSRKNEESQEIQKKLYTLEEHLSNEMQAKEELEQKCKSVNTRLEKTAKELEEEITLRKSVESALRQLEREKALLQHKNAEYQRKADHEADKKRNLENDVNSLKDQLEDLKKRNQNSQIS

On to `O=S(=O)(c1cccc2cnccc12)N1CCCNCC1` [fasudil], for which the coronary stenosis result in assay [1] was “progressively reduce coronary stenosis”. The “infarct size and neurologic deficit” value in assay [2] is “reduce both the infarct size and neurologic deficit”.

On to `O=C(Nc1cccnc1)c1cccc(-c2nsc(Nc3ccc4[nH]ncc4c3Cl)n2)c1` [IV-65], for which the concentration for half-maximal inhibition (IC50) in assay [3] (isolated enzyme assay) is below 1 µM; in assay [4] (isolated enzyme assay) it was below 1 µM; in assay [5] (numeric bound), above 10 µM; in assay [6] (class symbols) it was below 1 µM.

Take `CC(C)N1CCN(c2cc(-c3nsc(Nc4ccc5[nH]ncc5c4Cl)n3)ccn2)C1=O` [IV-90]: the 50% inhibitory concentration (IC50) was below 1 µM in assay [3] (isolated enzyme assay), below 1 µM in assay [4] (isolated enzyme assay), 1 to 15 µM in assay [5] (class symbols) and below 1 µM in assay [6] (class symbols).

As for `Cc1cc(NC(=O)c2ccnn2C)cc(-c2nsc(Nc3ccc4[nH]ncc4c3Cl)n2)n1` [IV-13], the IC50 in assay [3] (isolated enzyme assay) was below 1 µM; in assay [4] (isolated enzyme assay) it was below 1 µM; in assay [5] (numeric bound) it was above 10 µM; in assay [6] (numeric bound), above 10 µM.

Turning to `Cn1ccnc1C(=O)Nc1cccc(-c2nsc(Nc3ccc4[nH]ncc4c3Cl)n2)c1` [IV-73], the IC50 in assay [3] (isolated enzyme assay) was below 1 µM; in assay [4] (isolated enzyme assay), below 1 µM; in assay [5] (numeric bound), above 10 µM; in assay [6] (class symbols) it was below 1 µM.

On to `Cc1cc(C(=O)Nc2cc(-c3nsc(Nc4ccc5[nH]ncc5c4Cl)n3)ccn2)n(C)n1` [IV-58], for which the half-maximal inhibitory concentration (IC50) was above 30 µM in assay [3] (isolated enzyme assay), below 1 µM in assay [4] (isolated enzyme assay), above 10 µM in assay [5] (numeric bound) and below 1 µM in assay [6] (class symbols).

For `CC1(C)CCN(c2cccc(-c3nsc(Nc4ccc5[nH]ncc5c4Cl)n3)c2)C1=O` [IV-56], the IC50 is below 1 µM in assay [3] (isolated enzyme assay), below 1 µM in assay [4] (isolated enzyme assay), 1 to 15 µM in assay [5] (class symbols) and below 1 µM in assay [6] (class symbols).

On to `O=C(CC1CCCO1)Nc1cccc(-c2nsc(Nc3ccc4[nH]ncc4c3Cl)n2)c1` (centres unmarked) [IV-71], for which the IC50 in assay [3] (isolated enzyme assay) is below 1 µM; in assay [4] (isolated enzyme assay), below 1 µM; in assay [5] (class symbols), 1 to 15 µM; in assay [6] (class symbols), below 1 µM.

On to `O=C(NC1CCCC1)c1cc(-c2nsc(Nc3ccc4[nH]ncc4c3Cl)n2)ccc1F` [IV-48], for which the IC50 is below 1 µM in assay [3] (isolated enzyme assay), below 1 µM in assay [4] (isolated enzyme assay), 1 to 15 µM in assay [5] (class symbols) and below 1 µM in assay [6] (class symbols).

Regarding `Cc1cc(NC(=O)c2cn(C)cn2)cc(-c2nsc(Nc3ccc4[nH]ncc4c3Cl)n2)n1` [IV-26], the IC50 in assay [3] (isolated enzyme assay) was below 1 µM; in assay [4] (isolated enzyme assay), below 1 µM; in assay [5] (numeric bound) it was above 10 µM; in assay [6] (class symbols) it was below 1 µM.

`Cn1ccc(C(=O)Nc2cc(-c3nsc(Nc4ccc5[nH]ncc5c4Cl)n3)cn(C)c2=O)n1` [IV-10]: the IC50 in assay [3] (isolated enzyme assay) is above 30 µM; in assay [4] (isolated enzyme assay), below 1 µM; in assay [5] (numeric bound), above 10 µM; in assay [6] (numeric bound), above 10 µM.

Regarding `O=C(Nc1cccc(-c2nsc(Nc3ccc4[nH]ncc4c3Cl)n2)c1)c1cc[nH]n1` [IV-75], the IC50 in assay [3] (isolated enzyme assay) is below 1 µM; in assay [4] (isolated enzyme assay), below 1 µM; in assay [5] (numeric bound), above 10 µM; in assay [6] (class symbols) it was below 1 µM.

On to `Cc1ccncc1C(=O)Nc1cccc(-c2nsc(Nc3ccc4[nH]ncc4c3Cl)n2)c1` [Compound A-4], for which the IC50 is above 30 µM in assay [3] (isolated enzyme), below 1 µM in assay [4] (isolated enzyme), 1 to 15 µM in assay [5] (setting [7]) and below 1 µM in assay [6] (setting [7]).

For the molecule `Cn1ccc(C(=O)Nc2cccc(-c3nsc(Nc4ccc5[nH]ncc5c4Cl)n3)c2)n1` [IV-77], the IC50 is below 1 µM in assay [3] (isolated enzyme assay), below 1 µM in assay [4] (isolated enzyme assay), above 10 µM in assay [5] (numeric bound) and below 1 µM in assay [6] (class symbols).

As for `Cn1nccc1C(=O)Nc1cccc(-c2nsc(Nc3ccc4[nH]ncc4c3Cl)n2)c1` [Compound A-3], the IC50 in assay [3] (isolated enzyme) was below 1 µM; in assay [4] (isolated enzyme) it was below 1 µM; in assay [5] (setting [7]), 1 to 15 µM; in assay [6] (setting [7]), below 1 µM.

Turning to `CC1COCCN1C(=O)Nc1cc(-c2nsc(Nc3ccc4[nH]ncc4c3Cl)n2)ccn1` (centres unmarked) [IV-38], the IC50 in assay [3] (isolated enzyme assay) was below 1 µM; in assay [4] (isolated enzyme assay) it was below 1 µM; in assay [5] (class symbols) it was 1 to 15 µM; in assay [6] (class symbols), below 1 µM.

These data come from patent publication US10556898B2, “Indazolyl-1,2,4-thiadiazolamines and related compounds for inhibition of Rho-associated protein kinase and the treatment of disease” (Lycera Corporation, priority 2016, dated 2020).
